Assay results from PMC4137987 (Chemical Research in Toxicology, 2014).

Tests used:
[1] = test system: urinary 8-oxo-dG; test: Urinary 8-oxo-dG analysis; assay type: in vivo, female Sprague–Dawley (SD) rats; conditions: exposed rats; composite 24 h urine; not significant vs control (p = 0.23)
[2] = Excretion in urine and feces over 24 h after inhalation of PCB3; assay type: in vivo, female Sprague–Dawley (SD) rats; conditions: 0–24 h; PCB3 35 μg/rat; n = 3
[3] = test system: granulosa and theca cells derived from porcine ovary; conditions: cited from earlier work
[4] = Serum chemistry and serum free thyroxine; assay type: in vivo, female Sprague–Dawley (SD) rats; conditions: rats exposed to PCB3 for 2 h
[5] = Serum concentration and clearance of PCB3 metabolites after inhalation; assay type: in vivo, female Sprague–Dawley (SD) rats; conditions: 0 h postexposure; PCB3 26 μg/rat; mean ± SD, n = 3

Clc1ccc(-c2ccccc2)cc1 [PCB3, 4-chlorobiphenyl]
8-oxo-dG level in 24 h urine [1]: 160 ± 35 pg/mg creatinine | Unchanged PCB3 in feces, percentage of dose [2]: 4 ± 2% | Unchanged PCB3 in urine, percentage of dose [2]: 2 ± 1% | Estradiol level in the medium [3]: significant increase | Serum chemistry parameters (renal function, serum protein, T4, electrolyte balance, pancreas function, liver function, lipid metabolism) [4]: within normal ranges

Oc1ccc(-c2ccc(Cl)cc2)cc1 [4′OH-PCB3]
Serum concentration [5]: 7 ± 1 ng/mL | Metabolite excreted in urine, percentage of dose [2]: 1.0 ± 0.5%
